The source of these data is patent US12122785B2, “Substituted pyridines, pyridazines, pyrimidines, and 1,2,4-triazines as TYK2 inhibitors” (Sudo Biosciences Limited, priority 2021, dated 2024).

In one test the target is T1, JAK3 kinase domain (JH1) (Homo sapiens, UniProt P52333).
T1 construct: recombinant purified His or GST-tagged catalytic domain for each enzyme; purchased Carna biosciences 08-046
As to the kind of experiment: HTRF-based selectivity assay, JAK3 catalytic domain. Type of test: biochemical. The following applies: 2.12 μM ATP. Here is the method:
(§1) Example B-2: HTRF-Based Selectivity Assay
(§2) The ability of compounds to inhibit the activity of JAK1, JAK2, JAK3 and TYK2 is measured using a recombinant purified His or GST-tagged catalytic domain for each enzyme (JAK1, JAK2 and TYK2 are generated in-house; JAK3 was purchased from Carna biosciences, Cat #08-046) in an HTRF format biochemical assay. The reactions employs a commercial peptide substrate from Cisbio (Cat #62TK0PEC). The basic assay protocol is as follows: first, 2.5 μL of diluted compounds (4×) in DMSO are dispensed into a 384-well Optiplate. Next, 2.5 μL of enzyme (final concentrations for enzymes are: TYK2—700 ng/mL, JAK1—80.6 ng/mL, JAK2—2.1 ng/mL and JAK3—171.8 ng/mL) is added and incubated at RT for 5-20 min. Finally, 5 μl of mixture of 2×ATP [Final concentration 20 μM for TYK2, 21.43 μM for JAK1, 14.7 μM for JAK2 and 2.12 μM for JAK3]+2× Substrate [Final concentration 217 nM for TYK2, 454.7 nM for JAK1, 200 nM for JAK2 and 257.4 nM for JAK3] is added to 384 well Optiplate. Composition of Kinase assay buffer used in the assay is as follows: HEPES 50 mM, EGTA 1 mM, MgCl2 10 mM, DTT 2 mM, Tween-20 0.01% and water. Then the plates are shaken and then incubated at 26.5° C. for 60 min.

The target of a further test is T2, JAK1 kinase domain (JH1) (Homo sapiens, UniProt P23458).
T2 construct: recombinant purified His or GST-tagged catalytic domain for each enzyme; made in house
T2 sequence (P23458 875-1153 limits assumed): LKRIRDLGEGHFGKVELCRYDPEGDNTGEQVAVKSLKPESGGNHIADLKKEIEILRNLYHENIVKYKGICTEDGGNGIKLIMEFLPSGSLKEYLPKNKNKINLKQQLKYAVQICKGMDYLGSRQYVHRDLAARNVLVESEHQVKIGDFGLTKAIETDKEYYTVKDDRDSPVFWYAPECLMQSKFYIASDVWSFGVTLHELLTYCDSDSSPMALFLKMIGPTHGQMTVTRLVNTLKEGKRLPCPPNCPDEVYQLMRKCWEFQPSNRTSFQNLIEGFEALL
As to the kind of experiment: HTRF-based selectivity assay, JAK1 catalytic domain. Type of test: biochemical. The following applies: 21.43 μM ATP, read-out: JAK-JHI (IC50). Here is the method:
as §1, §2

For another test, the target named is T3, JAK2 kinase domain (JH1) (Homo sapiens, UniProt O60674).
T3 construct: recombinant purified His or GST-tagged catalytic domain for each enzyme; made in house
T3 sequence (O60674 849-1124 limits assumed): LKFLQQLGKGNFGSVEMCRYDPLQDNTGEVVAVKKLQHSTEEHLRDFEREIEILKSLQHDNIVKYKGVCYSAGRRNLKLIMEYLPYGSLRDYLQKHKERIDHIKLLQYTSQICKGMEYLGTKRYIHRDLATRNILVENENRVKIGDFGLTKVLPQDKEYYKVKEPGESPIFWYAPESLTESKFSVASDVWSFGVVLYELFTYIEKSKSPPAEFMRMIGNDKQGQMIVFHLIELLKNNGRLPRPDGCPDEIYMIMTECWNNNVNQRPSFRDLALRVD
Briefly: HTRF-based selectivity assay, JAK2 catalytic domain. Type of test: biochemical. The following applies: 14.7 μM ATP. Here is the method:
as §1, §2

The target of another test is T4, TYK2 kinase domain (JH1) (Homo sapiens, UniProt P29597).
T4 construct: recombinant purified His or GST-tagged catalytic domain for each enzyme; made in house
T4 sequence (P29597 897-1176 limits assumed): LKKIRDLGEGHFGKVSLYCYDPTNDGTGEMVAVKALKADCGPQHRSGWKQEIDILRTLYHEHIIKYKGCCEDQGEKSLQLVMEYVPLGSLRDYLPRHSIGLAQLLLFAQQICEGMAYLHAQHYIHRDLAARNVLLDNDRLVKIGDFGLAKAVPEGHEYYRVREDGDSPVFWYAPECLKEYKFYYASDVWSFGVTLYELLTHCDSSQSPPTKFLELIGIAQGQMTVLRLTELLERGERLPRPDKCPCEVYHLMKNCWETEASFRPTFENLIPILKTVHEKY
As to the kind of experiment: HTRF-based selectivity assay, TYK2 catalytic domain. It is filed as biochemical. The note with it: 20 μM ATP. Here is the method:
as §1, §2

In test [1] the test system is TYK2 pseudokinase (JH2); IFNα-stimulated HEK-Blue IFNα/β cells. As to the kind of experiment: HEK-Blue IFNα/β reporter assay (STAT1-inducible SEAP) for profiling TYK2 pseudokinase (JH2) inhibition. It is filed as cell-based. The following applies: 1 ng/mL human recombinant IFNα, SEAP readout, read-out: IFNα (TYK2 inhibitory activity, IC50). Here is the method:
(§3) Example B-1: HEK-Blue™ IL-23 and IFNα/β Reporter Assays for Profiling TYK2 Pseudokinase (JH2) Inhibition
(§4) HEK-Blue™ IL-23 and IFNα/β cells with a stably-integrated cytokine receptor and STAT3 or STAT1 express STAT-inducible secreted embryonic alkaline phosphatase (SEAP) reporter gene upon cytokine stimulation. These cells are plated in DMEM (Gibco) containing 10% heat-inactivated FBS (Gibco) and 100 U/mL PenStrep (Gibco) at 37° C. under 5% CO2 conditions for 20-22 hours. The cells are then pretreated with serially diluted test compounds for 60 min prior to stimulation with either 10 ng/mL human recombinant IL-23 (Miltenyl Biotech) or 1 ng/mL human recombinant IFNα (InvivoGen) for 22-24 hours for IL-23 or 16-18 h for IFNα. SEAP induction is measured using the QUANTI Blue™ Solution (InvivoGen) according to the manufacturer's instructions.

Test [2] concerns TYK2 pseudokinase (JH2); IL-23-stimulated HEK-Blue IL-23 cells. Briefly: HEK-Blue IL-23 reporter assay (STAT3-inducible SEAP) for profiling TYK2 pseudokinase (JH2) inhibition. Type of test: cell-based. The note with it: 10 ng/mL human recombinant IL-23, SEAP readout, read-out: IL23 (TYK2 inhibitory activity, IC50). Here is the method: as §3, §4
The subject of test [3] is IL-2-stimulated HEK-Blue IL-2 reporter cells. As to the kind of experiment: HEK-Blue IL-2 reporter assay (STAT5-inducible SEAP) for determining selectivity. The note with it: 4 ng/mL human recombinant IL-2, 24 hours. It is filed as cell-based. Here is the method:
(§5) Example B-3: HEK-Blue™ IL-2 and IFNγ Reporter Assays for Determining Selectivity
(§6) HEK-Blue™ IL-2 and IFNγ reporter cells with a stably-integrated cytokine receptor and STAT5 or STAT1 express STAT-inducible secreted embryonic alkaline phosphatase (SEAP) reporter gene upon cytokine stimulation. These cells were plated in DMEM (Gibco) containing 10% heat-inactivated FBS (Gibco) and 100 U/mL PenStrep (Gibco) at 37° C. under 5% CO2 conditions for 20-22 hours. The cells were then pretreated with serially diluted test compounds for 60 min prior to stimulation with either 4 ng/mL human recombinant IL-2 (Miltenyl Biotech) or 50 ng/mL human recombinant IFNγ (InvivoGen) for 24 hours. SEAP induction was measured using the QUANTI-Blue™ Solution (InvivoGen) according to the manufacturer's instructions.

Test [4] deals with IFNγ-stimulated HEK-Blue IFNγ reporter cells. Briefly: HEK-Blue IFNγ reporter assay (STAT1-inducible SEAP) for determining selectivity. Type of test: cell-based. The note with it: 50 ng/mL human recombinant IFNγ, 24 hours, read-out: IFN-γ SEAP selectivity assay IC50. Here is the method:
as §5, §6

T1 sequence (P52333 822-1111 limits assumed): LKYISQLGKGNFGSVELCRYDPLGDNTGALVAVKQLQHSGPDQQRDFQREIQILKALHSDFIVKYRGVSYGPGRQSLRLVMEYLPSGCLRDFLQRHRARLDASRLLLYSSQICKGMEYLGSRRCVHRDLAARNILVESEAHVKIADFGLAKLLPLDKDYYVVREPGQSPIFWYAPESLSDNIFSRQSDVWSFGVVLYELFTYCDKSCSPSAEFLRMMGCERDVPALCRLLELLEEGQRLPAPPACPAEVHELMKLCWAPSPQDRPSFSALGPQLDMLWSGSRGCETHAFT

In the case of `[2H]C([2H])([2H])NC(=O)c1cnc(NC(=O)C2CC2)cc1Nc1cccc2c1N(C)[C@@H](C)c1cn(C)nc1-2` (single isomer, unassigned) [Compound 30], the IC50 against JAK3 kinase domain (JH1) is more than 1000 nM; at JAK1 kinase domain (JH1) it was more than 1000 nM; against JAK2 kinase domain (JH1) it was more than 1000 nM; against TYK2 kinase domain (JH1), more than 1000 nM; in test [1], less than 30 nM; in test [2], less than 30 nM.
With `[2H]C([2H])([2H])NC(=O)c1cnc(NC(=O)[C@H]2C[C@H]2F)cc1Nc1cccc2c1N(C)Cc1cn(C)nc1-2` (single isomer, unassigned) [Compound 32], the 50% inhibitory concentration (IC50) against JAK3 kinase domain (JH1) was more than 1000 nM; in test [3], more than 1000 nM; at JAK1 kinase domain (JH1), more than 1000 nM; on JAK2 kinase domain (JH1), more than 1000 nM; against TYK2 kinase domain (JH1), more than 1000 nM; in test [1], less than 30 nM. The IC50 in test [2] is less than 30 nM.
For the compound `[2H]C([2H])([2H])NC(=O)c1nnc(NC(=O)C2CC2)cc1Nc1nccc2c1N(C)[C@H](C)c1cn(C)nc1-2` (single isomer, unassigned) [Compound 70], the IC50 against JAK3 kinase domain (JH1) is 300 to 1000 nM; in test [3], more than 1000 nM; at JAK1 kinase domain (JH1), more than 1000 nM; against JAK2 kinase domain (JH1) it was 30 to 300 nM; on TYK2 kinase domain (JH1), more than 1000 nM; in test [1] it was less than 30 nM. The IC50 in test [2] was less than 30 nM.
As to `CNC(=O)c1nnc(Nc2ccc(F)cn2)cc1Nc1cccc2c1OCc1cn(C)nc1-2` [Compound 1, 6-((5-fluoropyridin-2-yl)amino)-N-methyl-4-((2-methyl-2,4-dihydrochromeno[4,3-c]pyrazol-6-yl)amino)pyridazine-3-carboxamide], the IC50 against JAK3 kinase domain (JH1) was more than 1000 nM; in test [4] it was 300 to 1000 nM; in test [3], 300 to 1000 nM; on JAK1 kinase domain (JH1), more than 1000 nM; against JAK2 kinase domain (JH1), more than 1000 nM; against TYK2 kinase domain (JH1), 300 to 1000 nM. Besides, the IC50 in test [1] and in test [2] was 30 to 300 nM throughout.
Take `[2H]C([2H])([2H])NC(=O)c1nnc(NC(=O)C2CC2)cc1Nc1cccc2c1N(C([2H])([2H])[2H])Cc1cn(C)nc1-2` [Compound 28, 6-(cyclopropanecarboxamido)-N-(methyl-d3)-4-((2-methyl-5-(methyl-d3)-4,5-dihydro-2H-pyrazolo[4,3-c]quinolin-6-yl)amino)pyridazine-3-carboxamide]: the IC50 against JAK3 kinase domain (JH1) was more than 1000 nM; in test [4] it was 30 to 300 nM; in test [3], 300 to 1000 nM; on JAK1 kinase domain (JH1) it was more than 1000 nM; against JAK2 kinase domain (JH1) it was more than 1000 nM; in test [1], less than 30 nM. Also, the IC50 in test [2] was less than 30 nM.
As for `[2H]C([2H])([2H])NC(=O)c1cnc(NC(=O)C2CC2)cc1Nc1cccc2c1N(C)Cc1cn(C3COC3)nc1-2` [Compound 29, 6-(cyclopropanecarboxamido)-N-(methyl-d3)-4-((5-methyl-2-(oxetan-3-yl)-4,5-dihydro-2H-pyrazolo[4,3-c]quinolin-6-yl)amino)nicotinamide], the concentration for half-maximal inhibition (IC50) is more than 1000 nM in test [4]; more than 1000 nM in test [3]; more than 1000 nM on JAK1 kinase domain (JH1); more than 1000 nM at JAK2 kinase domain (JH1); more than 1000 nM against TYK2 kinase domain (JH1); less than 30 nM in test [1]. The IC50 in test [2] was less than 30 nM.
Take `[2H]C([2H])([2H])NC(=O)c1cnc(NC(=O)C2CC2)cc1Nc1cccc2c1N(C)C([2H])([2H])c1cn(C)nc1-2` [Compound 35, 6-(cyclopropanecarboxamido)-4-((2,5-dimethyl-4,5-dihydro-2H-pyrazolo[4,3-c]quinolin-6-yl-4,4-d2)amino)-N-(methyl-d3)nicotinamide]: the IC50 was more than 1000 nM on JAK3 kinase domain (JH1); more than 1000 nM in test [3]; more than 1000 nM at JAK1 kinase domain (JH1); more than 1000 nM against JAK2 kinase domain (JH1); more than 1000 nM against TYK2 kinase domain (JH1); less than 30 nM in test [1]. Moreover, the IC50 in test [2] was less than 30 nM.
With `[2H]C([2H])([2H])NC(=O)c1cnc(NC(=O)C2CC2)cc1Nc1nccc2c1N(C)Cc1cn(C)nc1-2` [Compound 64, 6-(cyclopropanecarboxamido)-4-((2,5-dimethyl-4,5-dihydro-2H-pyrazolo[4,3-c][1,7]naphthyridin-6-yl)amino)-N-(methyl-d3)nicotinamide], the IC50 in test [4] was 300 to 1000 nM; in test [3], more than 1000 nM; at JAK1 kinase domain (JH1), more than 1000 nM; at JAK2 kinase domain (JH1), more than 1000 nM; against TYK2 kinase domain (JH1), more than 1000 nM; in test [1], less than 30 nM. Also, the IC50 in test [2] is less than 30 nM.
For `[2H]C([2H])([2H])NC(=O)c1nnc(NC(=O)C2CC2)cc1Nc1nccc2c1N(C)Cc1cc(C)nn1-2` [Compound 68, 6-(cyclopropanecarboxamido)-4-((2,5-dimethyl-4,5-dihydropyrazolo[1,5-a]pyrido[3,4-e]pyrazin-6-yl)amino)-N-(methyl-d3)pyridazine-3-carboxamide], the IC50 is more than 1000 nM against JAK3 kinase domain (JH1); more than 1000 nM in test [3]; more than 1000 nM on JAK1 kinase domain (JH1); more than 1000 nM against JAK2 kinase domain (JH1); more than 1000 nM against TYK2 kinase domain (JH1); less than 30 nM in test [1]. In test [2], the IC50 was less than 30 nM.
`Cn1cc2c(n1)-c1cccc(Nc3cc(NC(=O)C4CC4)nc4[nH]n(C)c(=O)c34)c1OC2` [Compound 88, N-(2-methyl-4-((2-methyl-2,4-dihydrochromeno[4,3-c]pyrazol-6-yl)amino)-3-oxo-2,3-dihydro-1H-pyrazolo[3,4-b]pyridin-6-yl)cyclopropanecarboxamide]: the IC50 (at JAK3 kinase domain (JH1); in test [4]; in test [3]; at JAK2 kinase domain (JH1); on TYK2 kinase domain (JH1); in test [1]) was more than 1000 nM in each case. Further, the IC50 in test [2] was 300 to 1000 nM.
In the case of `CN1Cc2cn(C)nc2-c2cccc(Nc3cc(NC(=O)C4CC4)nc4[nH]n(C)c(=O)c34)c21` [Compound 89, N-(4-((2,5-dimethyl-4,5-dihydro-2H-pyrazolo[4,3-c]quinolin-6-yl)amino)-2-methyl-3-oxo-2,3-dihydro-1H-pyrazolo[3,4-b]pyridin-6-yl)cyclopropanecarboxamide], the IC50 against JAK3 kinase domain (JH1) is more than 1000 nM; in test [4] it was more than 1000 nM; in test [3], more than 1000 nM; against JAK2 kinase domain (JH1), more than 1000 nM; against TYK2 kinase domain (JH1), more than 1000 nM; in test [1], 30 to 300 nM. The IC50 in test [2] was less than 30 nM.
